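Interpolation was linear, between the two tested concentrations surrounding the appropriate level; five concentrations were tested over 48 hours in 96-well plates. Here, GI50 denotes the concentration required for 50% inhibition of growth. TGI: concentration producing complete growth inhibition.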
Experiments:
Test in all cases: growth of human tumour cells (NCI), 48 h
U251 CNS = system: U251 CNS
LOX IMVI melanoma = system: LOX IMVI melanoma
SK-MEL-28 melanoma = system: SK-MEL-28 melanoma
MDA-MB-231 breast = system: MDA-MB-231 breast
NCI-H522 lung = system: NCI-H522 lung
MCF7 breast = system: MCF7 breast
A498 renal = system: A498 renal
K-562 leukemia = system: K-562 leukemia
KM12 colon = system: KM12 colon
RPMI-8226 leukemia = system: RPMI-8226 leukemia
EKVX NSCLC = system: EKVX NSCLC
CAKI-1 renal = system: CAKI-1 renal
HOP-62 NSCLC = system: HOP-62 NSCLC
HCT-15 colon = system: HCT-15 colon
SR leukemia = system: SR leukemia
SK-MEL-5 melanoma = system: SK-MEL-5 melanoma
OVCAR-4 ovarian = system: OVCAR-4 ovarian
SW-620 colon = system: SW-620 colon
OVCAR-3 ovarian = system: OVCAR-3 ovarian
MALME-3M melanoma = system: MALME-3M melanoma
MOLT-4 leukemia = system: MOLT-4 leukemia
A549 NSCLC = system: A549 NSCLC
SN12C renal = system: SN12C renal
T-47D breast = system: T-47D breast
M14 melanoma = system: M14 melanoma
UO-31 renal = system: UO-31 renal
HCT-116 colon = system: HCT-116 colon
SF-295 CNS = system: SF-295 CNS
CCRF-CEM leukemia = system: CCRF-CEM leukemia
TK-10 renal = system: TK-10 renal
SNB-75 CNS = system: SNB-75 CNS
RXF 393 renal = system: RXF 393 renal
HT29 colon = system: HT29 colon
DU-145 prostate = system: DU-145 prostate
IGROV1 ovarian = system: IGROV1 ovarian
SF-539 CNS = system: SF-539 CNS
NCI-H23 lung = system: NCI-H23 lung
SF-268 CNS = system: SF-268 CNS
ACHN renal = system: ACHN renal
PC-3 prostate = system: PC-3 prostate
OVCAR-8 ovarian = system: OVCAR-8 ovarian
NCI-H226 lung = system: NCI-H226 lung
COLO 205 colon = system: COLO 205 colon
SK-MEL-2 melanoma = system: SK-MEL-2 melanoma
MDA-MB-435 = system: MDA-MB-435
NCI-H460 lung = system: NCI-H460 lung
786-0 renal = system: 786-0 renal
UACC-257 melanoma = system: UACC-257 melanoma
UACC-62 melanoma = system: UACC-62 melanoma
HS 578T breast = system: HS 578T breast
OVCAR-5 ovarian = system: OVCAR-5 ovarian
NCI/ADR-RES ovarian = system: NCI/ADR-RES ovarian
SK-OV-3 ovarian = system: SK-OV-3 ovarian
HOP-92 NSCLC = system: HOP-92 NSCLC
SNB-19 CNS = system: SNB-19 CNS
HCC-2998 colon = system: HCC-2998 colon
BT-549 breast = system: BT-549 breast
HL-60(TB) leukemia = system: HL-60(TB) leukemia

## O=[N+]([O-])c1cc(Cl)c(Cl)cc1[N+](=O)[O-]
U251 CNS
  TGI: 3.82 µM
LOX IMVI melanoma
  TGI: 4.74 µM
SK-MEL-28 melanoma
  TGI: 6.04 µM
MDA-MB-231 breast
  TGI: 4.38 µM
NCI-H522 lung
  TGI: 3.36 µM
MCF7 breast
  TGI: 4.85 µM
A498 renal
  TGI: 33 µM
K-562 leukemia
  TGI: 5.81 µM
KM12 colon
  TGI: 13 µM
RPMI-8226 leukemia
  TGI: 15.2 µM
EKVX NSCLC
  TGI: 8.81 µM
CAKI-1 renal
  TGI: 4.28 µM
HOP-62 NSCLC
  TGI: 6.49 µM
HCT-15 colon
  TGI: 7.77 µM
SR leukemia
  TGI: 4.98 µM
SK-MEL-5 melanoma
  TGI: 29.2 µM
OVCAR-4 ovarian
  TGI: 4.63 µM
SW-620 colon
  TGI: 7.73 µM
OVCAR-3 ovarian
  TGI: 3.22 µM
MALME-3M melanoma
  TGI: 5.83 µM
MOLT-4 leukemia
  TGI: 0.797 µM
A549 NSCLC
  TGI: 4.97 µM
SN12C renal
  TGI: 3.52 µM
T-47D breast
  TGI: 6.63 µM
M14 melanoma
  TGI: 8.8 µM
UO-31 renal
  TGI: 3.62 µM
HCT-116 colon
  TGI: > 100 µM
SF-295 CNS
  TGI: 5.23 µM
CCRF-CEM leukemia
  TGI: > 100 µM
TK-10 renal
  TGI: 12.3 µM
SNB-75 CNS
  TGI: 9.32 µM
RXF 393 renal
  TGI: 3.48 µM
HT29 colon
  TGI: 26.9 µM
DU-145 prostate
  TGI: 4.42 µM
IGROV1 ovarian
  TGI: 3.44 µM
SF-539 CNS
  TGI: 4.68 µM
NCI-H23 lung
  TGI: 4.83 µM
SF-268 CNS
  TGI: 3.66 µM
ACHN renal
  TGI: 6.51 µM
PC-3 prostate
  TGI: 3.94 µM
OVCAR-8 ovarian
  TGI: 5.99 µM
NCI-H226 lung
  TGI: 11 µM
COLO 205 colon
  TGI: 26.5 µM
SK-MEL-2 melanoma
  TGI: 4.74 µM
MDA-MB-435
  TGI: 12.8 µM
NCI-H460 lung
  TGI: 12.3 µM
786-0 renal
  TGI: 6.36 µM
UACC-257 melanoma
  TGI: 4.1 µM
UACC-62 melanoma
  TGI: 4.42 µM
HS 578T breast
  TGI: 72.3 µM
OVCAR-5 ovarian
  TGI: 5.21 µM

## CC(C)=CCC/C(C)=C/CC/C(C)=C/CC/C(C)=C/CSC[C@H](NC(=O)CCCCCN1CCN(C)CC1)C(=O)NC1CCCCC1
U251 CNS
  GI50: 1.81 µM
  TGI: 3.52 µM
NCI/ADR-RES ovarian
  GI50: 8.98 µM
  TGI: 33.8 µM
SK-MEL-28 melanoma
  GI50: 1.79 µM
  TGI: 3.43 µM
MDA-MB-231 breast
  GI50: 2 µM
  TGI: 3.84 µM
A498 renal
  GI50: 14.4 µM
  TGI: 34.2 µM
KM12 colon
  GI50: 2.03 µM
  TGI: 4.01 µM
RPMI-8226 leukemia
  GI50: 2.14 µM
  TGI: 5.13 µM
CAKI-1 renal
  GI50: 3.08 µM
  TGI: 11 µM
HOP-62 NSCLC
  GI50: 8.63 µM
  TGI: 32.2 µM
HCT-15 colon
  GI50: 1.78 µM
  TGI: 3.47 µM
SR leukemia
  GI50: 2.44 µM
  TGI: 6.27 µM
OVCAR-4 ovarian
  GI50: 3.51 µM
  TGI: 15.5 µM
SW-620 colon
  GI50: 1.91 µM
  TGI: 3.81 µM
SK-OV-3 ovarian
  GI50: 13 µM
  TGI: 32.5 µM
OVCAR-3 ovarian
  GI50: 2.66 µM
  TGI: 6.49 µM
MOLT-4 leukemia
  GI50: 3.17 µM
  TGI: 8.44 µM
A549 NSCLC
  GI50: 3.36 µM
  TGI: 14 µM
SN12C renal
  GI50: 2.36 µM
  TGI: 6.19 µM
T-47D breast
  GI50: 2.31 µM
  TGI: 7.02 µM
SF-295 CNS
  GI50: 1.74 µM
  TGI: 3.51 µM
CCRF-CEM leukemia
  GI50: 2.51 µM
  TGI: 7.67 µM
TK-10 renal
  GI50: 11.7 µM
  TGI: 30.5 µM
SNB-75 CNS
  GI50: 4.16 µM
  TGI: 21 µM
DU-145 prostate
  GI50: 2.08 µM
  TGI: 4.07 µM
IGROV1 ovarian
  GI50: 2.91 µM
  TGI: 7.76 µM
NCI-H23 lung
  GI50: 4.73 µM
  TGI: 23.4 µM
SF-268 CNS
  GI50: 4.05 µM
  TGI: 17.5 µM
PC-3 prostate
  GI50: 1.76 µM
  TGI: 3.49 µM
OVCAR-8 ovarian
  GI50: 3.4 µM
  TGI: 14.3 µM
NCI-H226 lung
  GI50: 24 µM
  TGI: 98.2 µM
SK-MEL-2 melanoma
  GI50: 4.11 µM
  TGI: 14.5 µM
MDA-MB-435
  GI50: 1.66 µM
  TGI: 3.07 µM
HOP-92 NSCLC
  GI50: 2.13 µM
  TGI: 11.3 µM
NCI-H460 lung
  GI50: 1.94 µM
  TGI: 3.73 µM
SNB-19 CNS
  GI50: 2.27 µM
  TGI: 5.71 µM
UACC-257 melanoma
  GI50: 2.09 µM
  TGI: 4.93 µM
HS 578T breast
  GI50: 3.54 µM
  TGI: 17.4 µM
OVCAR-5 ovarian
  GI50: 2.05 µM
  TGI: 5.25 µM

## CS(=O)(=O)O[C@H]1C(=O)N(c2cc3c4ccccc4ccc3c3ccccc23)[C@@H]1c1ccccc1
U251 CNS
  GI50: 0.457 µM
  TGI: > 100 µM
LOX IMVI melanoma
  GI50: 0.526 µM
  TGI: > 100 µM
NCI/ADR-RES ovarian
  GI50: 0.206 µM
  TGI: 0.94 µM
SK-MEL-28 melanoma
  GI50: > 100 µM
  TGI: > 100 µM
MDA-MB-231 breast
  GI50: 0.836 µM
  TGI: > 100 µM
NCI-H522 lung
  GI50: 1.11 µM
  TGI: 5.65 µM
MCF7 breast
  GI50: 4.33 µM
  TGI: > 100 µM
A498 renal
  GI50: 0.545 µM
  TGI: > 100 µM
K-562 leukemia
  GI50: 0.731 µM
  TGI: > 100 µM
HCC-2998 colon
  GI50: 0.439 µM
  TGI: 5.64 µM
KM12 colon
  GI50: 0.216 µM
  TGI: > 100 µM
RPMI-8226 leukemia
  GI50: 0.844 µM
  TGI: > 23.5 µM
EKVX NSCLC
  GI50: 0.342 µM
  TGI: > 100 µM
CAKI-1 renal
  GI50: 0.0747 µM
  TGI: 0.83 µM
HOP-62 NSCLC
  GI50: 0.388 µM
  TGI: > 100 µM
HCT-15 colon
  GI50: 0.408 µM
  TGI: > 100 µM
SR leukemia
  GI50: 0.355 µM
  TGI: > 100 µM
SK-MEL-5 melanoma
  GI50: 0.766 µM
  TGI: > 33.5 µM
OVCAR-4 ovarian
  GI50: > 100 µM
  TGI: > 100 µM
SW-620 colon
  GI50: 0.874 µM
  TGI: > 100 µM
SK-OV-3 ovarian
  GI50: 2.31 µM
  TGI: > 100 µM
OVCAR-3 ovarian
  GI50: 0.0617 µM
  TGI: 0.278 µM
MOLT-4 leukemia
  GI50: > 100 µM
  TGI: > 100 µM
A549 NSCLC
  GI50: 2.18 µM
  TGI: > 100 µM
SN12C renal
  GI50: 0.567 µM
  TGI: > 100 µM
T-47D breast
  GI50: > 100 µM
  TGI: > 100 µM
M14 melanoma
  GI50: 0.809 µM
  TGI: > 100 µM
UO-31 renal
  GI50: 3.44 µM
  TGI: > 100 µM
BT-549 breast
  GI50: 0.17 µM
  TGI: > 100 µM
HCT-116 colon
  GI50: 0.313 µM
  TGI: > 100 µM
SF-295 CNS
  GI50: 0.0995 µM
  TGI: 0.4 µM
TK-10 renal
  GI50: 0.616 µM
  TGI: > 86.9 µM
SNB-75 CNS
  GI50: 0.656 µM
  TGI: > 100 µM
HT29 colon
  GI50: 0.474 µM
  TGI: > 100 µM
DU-145 prostate
  GI50: 0.819 µM
  TGI: > 100 µM
IGROV1 ovarian
  GI50: > 100 µM
  TGI: > 100 µM
SF-539 CNS
  GI50: 0.71 µM
  TGI: 1.76 µM
NCI-H23 lung
  GI50: 0.753 µM
  TGI: > 100 µM
SF-268 CNS
  GI50: 0.588 µM
  TGI: > 100 µM
ACHN renal
  GI50: 0.332 µM
  TGI: > 100 µM
PC-3 prostate
  GI50: 0.561 µM
  TGI: > 100 µM
OVCAR-8 ovarian
  TGI: > 100 µM
NCI-H226 lung
  GI50: > 100 µM
  TGI: > 100 µM
COLO 205 colon
  GI50: 0.693 µM
  TGI: > 100 µM
SK-MEL-2 melanoma
  TGI: > 100 µM
MDA-MB-435
  GI50: 0.0232 µM
  TGI: 0.0923 µM
HOP-92 NSCLC
  TGI: > 100 µM
HL-60(TB) leukemia
  GI50: 0.532 µM
  TGI: > 100 µM
NCI-H460 lung
  GI50: 1.59 µM
  TGI: > 100 µM
786-0 renal
  GI50: 0.287 µM
SNB-19 CNS
  TGI: > 100 µM
UACC-257 melanoma
  GI50: > 38.1 µM
  TGI: > 100 µM
UACC-62 melanoma
  GI50: 0.24 µM
  TGI: > 100 µM
OVCAR-5 ovarian
  GI50: 0.574 µM

From PubChem BioAssay (NCI)
